Measured values published in US20180193391A1, “INDUCTION OF LAMINA PROPRIA REGULATORY T CELLS” (President and Fellows of Harvard College, priority 2015, published 2018).

What was measured:
colonic Rorγ^+ Tregs = experiment: Mono-colonization of germ free mice with single bacterial species; colonic Rorγ+ Tregs by flow cytometry; type: in vivo, Germfree C57BL/6J mice
Procedure: A panel of bacterial species selected from the microbiota of the human gastrointestinal tract were tested for their ability to induce the production of Rorγ^+ Tregs. Bacteria were obtained from the ATCC, BEI Resources, or the German Collection of Microorganisms and Cell Cultures (DSMZ), or from the laboratory collections at Harvard Medical School. Anaerobic bacteria were cultured under strictly anaerobic conditions (80% N2, 10% H2, 10% CO2) at 37° C. in an anaerobic chamber.
Germfree C57BL/6J were maintained in sterile isolators, and were inoculated by gavage with single bacterial species at 4 weeks of age, then housed in gnobiotic isolators. After 2 weeks, mice were sacrificed, colon tissue was harvested, cleaned of luminal content and treated with RPMI containing 1 mM DTT, 20 mM EDTA and 2% FBS at 37° C. for 15 min to remove epithelial cells. The colon tissue was then minced and dissociated in collagenase solution (1.5 mg/ml collagenase II (Gibco), 0.5 mg/ml dispase and 1% FBS in RPMI) with constantly stirring at 37° C. for 45 min. […] Cells were analyzed with a BD LSRII flow cytometer, and data analysis was performed with FlowJo (Tree Star) software. The proportion of Rorγ^+ Tregs was determined within the total population of CD4^+FoxP3^+ Treg cells, and the significance of the difference relative to unmanipulated germfree mice determined using a two-tailed Student's T-test. […]

Rorγ^+ Tregs = experiment: IL-33 administration to mice; response of Rorγ+ Tregs; type: in vivo; details: recombinant mouse IL-33 i.p.
Procedure: Mice were bred in a pathogen-free facility or in germ-free isolators. For IL-33 administration, recombinant mouse IL-33 (BioLegend) was administered i.p. at 2 μg/injection every other day for 7 days.

| Molecule | induction of production of Rorγ^+Helios^− LP Tregs (colonic Rorγ^+ Tregs; germ free mice colonized with single bacterial species for 2 weeks, FIGS. 4D, 4E and 5) | ability to promote colonic Treg production (proportions) (colonic Rorγ^+ Tregs; within the Bacteroides genus, mono-colonized germ free mice) | response of Rorγ^+ Tregs to IL-33 (Rorγ^+ Tregs) |
| --- | --- | --- | --- |
| Bacteroides fragilis | capable of inducing production | low |  |
| IL-33: recombinant mouse IL-33 (BioLegend); alarmin (protein, UniProt Q8BVZ5 1-266, looked up) Interleukin-33: MRPRMKYSNSKISPAKFSSTAGEALVPPCKIRRSQQKTKEFCHVYCMRLRSGLTIRKETSYFRKEPTKRYSLKSGTKHEENFSAYPRDSRKRSLLGSIQAFAASVDTLSIQGTSLLTQSPASLSTYNDQSVSFVLENGCYVINVDDSGKDQEQDQVLLRYYESPCPASQSGDGVDGKKLMVNMSPIKDTDIWLHANDKDYSVELQRGDVSPPEQAFFVLHKKSSDFVSFECKNLPGTYIGVKDNQLALVEEKDESCNNIMFKLSKI |  |  | do not respond |
